The values that follow come from BindingDB's records for doi:10.1016/j.bmcl.2010.01.018 (Schering-Plough Research Institute, 2010).

This assay is described as follows: Inhibition of Aurora 2 kinase.

One may read the IC50 as the concentration needed to halve the response being measured. High values mean a need for much substance, low ones inhibition by little substance. Consider `COc1c(O)cc2c3c(cc4ccc(O)cc4c13)NC2=O` [aristololactam A IIIa], for which the IC50 was 2140 nM.
